According to ChEMBL document CHEMBL1201862, “PubChem BioAssay data set” (2004):
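Exposure lasted 48 hours, with cells grown in 96-well plates and compounds tested at five concentrations. GI50 is the concentration that inhibits growth by half.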 Activity calls are given as the source filed them. Rule as the data show it: active = GI50 up to about 1.1 µM and inactive = higher.

What was measured:
Assay in all cases: NCI anticancer screen, dose series, 48 h
[1] = test system: NCI-H23
[2] = test system: K562
[3] = test system: HT-29
[4] = test system: MOLT-4
[5] = test system: NCI-H460
[6] = test system: A498
[7] = test system: SK-MEL-28
[8] = test system: HCT-15
[9] = test system: SNB-19
[10] = test system: SK-MEL-2
[11] = test system: SF-539
[12] = test system: KM-20L2
[13] = test system: SNB-78
[14] = test system: RXF 393
[15] = test system: M14
[16] = test system: COLO 205
[17] = test system: SF-268
[18] = test system: CAKI-1
[19] = test system: Malme-3M
[20] = test system: HL-60
[21] = test system: LXFL 529
[22] = test system: A549
[23] = test system: LOX IMVI
[24] = test system: OVCAR-8
[25] = test system: XF498
[26] = test system: M19-MEL
[27] = test system: SK-MEL-5
[28] = test system: SF-295
[29] = test system: HOP-62
[30] = test system: NCI-H522
[31] = test system: RPMI-8226
[32] = test system: DLD-1
[33] = test system: SR
[34] = test system: DMS-273
[35] = test system: TK-10
[36] = test system: DMS-114
[37] = test system: SW-620
[38] = test system: OVCAR-4
[39] = test system: NCI-H226
[40] = test system: ACHN
[41] = test system: HCT-116
[42] = test system: HOP-92
[43] = test system: HOP-18
[44] = test system: OVCAR-5
[45] = test system: EKVX
[46] = test system: UO-31
[47] = test system: UACC-62
[48] = test system: HCC 2998
[49] = test system: CCRF-CEM
[50] = test system: 786-0
[51] = test system: UACC-257
[52] = test system: U-251
[53] = test system: SK-OV-3
[54] = test system: IGROV-1
[55] = test system: SNB-75
[56] = test system: KM12
[57] = test system: SN12C
[58] = test system: OVCAR-3

With O=C(/C=C/c1cccc([N+](=O)[O-])c1)c1cccnc1 the GI50 [1] was 17.7 µM (inactive), the GI50 [2] was 29.4 µM (inactive) and the GI50 [3] was 20.2 µM (inactive). The GI50 [4] was 26.4 µM (inactive), the GI50 [5] was 50.7 µM (inactive) and the GI50 [6] was > 43.6 µM (inactive). For the same molecule, the GI50 [7] was 23.6 µM (inactive), the GI50 [8] was 43.5 µM and the GI50 [9] was > 53.3 µM (inactive). The GI50 [10] was > 100 µM (inactive), the GI50 [11] was 21.1 µM (inactive) and the GI50 [12] was 27.7 µM (inactive). For the same molecule, the GI50 [13] was 41.2 µM (inactive), the GI50 [14] was 18.1 µM (inactive) and the GI50 [15] was 13.7 µM (inactive). The GI50 [16] was 35.6 µM (inactive), the GI50 [17] was 33.3 µM (inactive) and the GI50 [18] was > 46.5 µM (inactive). The GI50 [19] was > 89.9 µM (inactive), the GI50 [20] was 20.6 µM (inactive) and the GI50 [21] was 21 µM (inactive). The GI50 [22] was > 60 µM (inactive), the GI50 [23] was 21.2 µM (inactive) and the GI50 [24] was 34.6 µM (inactive). For the same molecule, the GI50 [25] was 35.8 µM (inactive), the GI50 [26] was 31.2 µM (inactive) and the GI50 [27] was 14.7 µM (inactive). The GI50 [28] was 46 µM (inactive), the GI50 [29] was > 100 µM (inactive) and the GI50 [30] was 7.98 µM (inactive). The GI50 [31] was 19.4 µM (inactive), the GI50 [32] was 20.3 µM (inactive) and the GI50 [33] was 22.7 µM (inactive). The GI50 [34] was 25.3 µM (inactive), the GI50 [35] was > 100 µM (inactive) and the GI50 [36] was 22.6 µM (inactive). For the same molecule, the GI50 [37] was 19.4 µM (inactive), the GI50 [38] was > 91 µM (inactive) and the GI50 [39] was > 52.6 µM (inactive). For the same molecule, the GI50 [40] was 71.1 µM (inactive), the GI50 [41] was 16.7 µM (inactive) and the GI50 [42] was 74 µM (inactive). For the same molecule, the GI50 [43] was 2.06 µM (inactive), the GI50 [44] was > 100 µM (inactive) and the GI50 [45] was > 100 µM (inactive). The GI50 [46] was > 45.1 µM (inactive), the GI50 [47] was 30.2 µM (inactive) and the GI50 [48] was 36.5 µM (inactive). For the same molecule, the GI50 [49] was 24.6 µM (inactive), the GI50 [50] was 16.5 µM (inactive) and the GI50 [51] was 23.9 µM (inactive). The GI50 [52] was 20.6 µM (inactive), the GI50 [53] was > 100 µM (inactive) and the GI50 [54] was 28.7 µM (inactive). For the same molecule, the GI50 [55] was > 52.8 µM (inactive), the GI50 [56] was 19.9 µM (inactive) and the GI50 [57] was 26.5 µM (inactive). For the same molecule, the GI50 [58] was 27.5 µM (inactive).

In the case of O=C(CCC(=O)C(C(=O)c1ccccc1)c1ccccc1)Nc1cccc(C(F)(F)F)c1 (stereo not given), the GI50 [1] is reported as > 100 µM (inactive), the GI50 [2] is reported as > 100 µM (inactive) and the GI50 [3] is reported as > 100 µM (inactive). The GI50 [4] was > 100 µM (inactive), the GI50 [5] was > 100 µM (inactive) and the GI50 [6] was > 100 µM (inactive). The GI50 [8] was > 100 µM, the GI50 [9] was > 100 µM (inactive) and the GI50 [10] was > 100 µM (inactive). The GI50 [11] was > 100 µM (inactive), the GI50 [12] was > 100 µM (inactive) and the GI50 [13] was > 100 µM (inactive). For the same molecule, the GI50 [15] was > 100 µM (inactive), the GI50 [16] was > 100 µM (inactive) and the GI50 [17] was > 100 µM (inactive). The GI50 [18] was > 100 µM (inactive), the GI50 [19] was > 100 µM (inactive) and the GI50 [20] was > 100 µM (inactive). The GI50 [21] was > 100 µM (inactive), the GI50 [22] was > 100 µM (inactive) and the GI50 [23] was > 100 µM (inactive). The GI50 [24] was > 100 µM (inactive), the GI50 [25] was > 100 µM (inactive) and the GI50 [26] was > 100 µM (inactive). For the same molecule, the GI50 [28] was > 100 µM (inactive), the GI50 [30] was > 100 µM (inactive) and the GI50 [31] was > 100 µM (inactive). For the same molecule, the GI50 [32] was > 100 µM (inactive), the GI50 [34] was > 100 µM (inactive) and the GI50 [35] was > 100 µM (inactive). The GI50 [36] was > 100 µM (inactive), the GI50 [37] was > 100 µM (inactive) and the GI50 [38] was > 100 µM (inactive). For the same molecule, the GI50 [39] was > 100 µM (inactive), the GI50 [40] was > 100 µM (inactive) and the GI50 [41] was > 100 µM (inactive). The GI50 [42] was > 100 µM (inactive), the GI50 [43] was > 100 µM (inactive) and the GI50 [44] was > 100 µM (inactive). The GI50 [45] was > 100 µM (inactive), the GI50 [46] was > 100 µM (inactive) and the GI50 [47] was > 100 µM (inactive). The GI50 [48] was > 100 µM (inactive), the GI50 [49] was > 100 µM (inactive) and the GI50 [50] was > 100 µM (inactive). The GI50 [51] was > 100 µM (inactive), the GI50 [52] was > 100 µM (inactive) and the GI50 [53] was > 100 µM (inactive). For the same molecule, the GI50 [54] was > 100 µM (inactive), the GI50 [56] was > 100 µM (inactive) and the GI50 [57] was > 100 µM (inactive). The GI50 [58] was > 100 µM (inactive).
